Earlier results as cited in patent US20170239312A1, “WEIGHT MANAGEMENT SYSTEMS AND RELATED METHODS” (priority 2013, published 2017).

What was measured:
[1] = caffeine alone
[2] = fed capsaicin versus saline (control group)
3T3-L1 pre-adipocytes = conditions: dose- and time-dependent
[3] = obese rats, 10 mg/kg-body weight
[4] = 50-200 mg/day
[5] = mice, high fat diet, 10 weeks

In the case of Cn1c(=O)c2c(ncn2C)n(C)c1=O [Caffeine], the “Effect on thermogenesis or fat oxidation” value [1] is listed as “no effect”.

In the case of COc1cc(CNC(=O)CCCC/C=C/C(C)C)ccc1O [capsaicin], the “Decrease in body weight” value [2] is given as 8%.

For O=c1c(O)c(-c2ccc(O)c(O)c2)oc2cc(O)cc(O)c12 [quercetin], the “Apoptosis (cell suicide)” value (3T3-L1 pre-adipocytes) is listed as “induced apoptosis” and the Body weight gain [3] is listed as “reduced body weight gain”.

In the case of CCNC(=O)CC[C@H](N)C(=O)O [theanine], the “Time to sense of relaxation” value [4] is given as 30 to 40 min.

In the case of fucoxanthin, the “Body weight and adipose tissue” value [5] is listed as “significant decrease in body weight and adipose tissue”.
